Like-named read-outs stand apart in the source and are kept apart here.
Assays:
FLT-3 = target: T1, FLT-3 (Homo sapiens, UniProt P36888, INS600HVDFREYEYD); assay: Cellular assay of target protein degradation (MV-4-11 cells, westernblot); format: cell-based; settings: Table 3; FLT-3 degradation, result in words
T1 construct: probed with antibodies specific for FLT-3 and GAPDH; endogenous in cells; host or cells: MV-4-11 cells
T1 sequence (P36888 with tags, fused parts or gaps INS600HVDFREYEYD): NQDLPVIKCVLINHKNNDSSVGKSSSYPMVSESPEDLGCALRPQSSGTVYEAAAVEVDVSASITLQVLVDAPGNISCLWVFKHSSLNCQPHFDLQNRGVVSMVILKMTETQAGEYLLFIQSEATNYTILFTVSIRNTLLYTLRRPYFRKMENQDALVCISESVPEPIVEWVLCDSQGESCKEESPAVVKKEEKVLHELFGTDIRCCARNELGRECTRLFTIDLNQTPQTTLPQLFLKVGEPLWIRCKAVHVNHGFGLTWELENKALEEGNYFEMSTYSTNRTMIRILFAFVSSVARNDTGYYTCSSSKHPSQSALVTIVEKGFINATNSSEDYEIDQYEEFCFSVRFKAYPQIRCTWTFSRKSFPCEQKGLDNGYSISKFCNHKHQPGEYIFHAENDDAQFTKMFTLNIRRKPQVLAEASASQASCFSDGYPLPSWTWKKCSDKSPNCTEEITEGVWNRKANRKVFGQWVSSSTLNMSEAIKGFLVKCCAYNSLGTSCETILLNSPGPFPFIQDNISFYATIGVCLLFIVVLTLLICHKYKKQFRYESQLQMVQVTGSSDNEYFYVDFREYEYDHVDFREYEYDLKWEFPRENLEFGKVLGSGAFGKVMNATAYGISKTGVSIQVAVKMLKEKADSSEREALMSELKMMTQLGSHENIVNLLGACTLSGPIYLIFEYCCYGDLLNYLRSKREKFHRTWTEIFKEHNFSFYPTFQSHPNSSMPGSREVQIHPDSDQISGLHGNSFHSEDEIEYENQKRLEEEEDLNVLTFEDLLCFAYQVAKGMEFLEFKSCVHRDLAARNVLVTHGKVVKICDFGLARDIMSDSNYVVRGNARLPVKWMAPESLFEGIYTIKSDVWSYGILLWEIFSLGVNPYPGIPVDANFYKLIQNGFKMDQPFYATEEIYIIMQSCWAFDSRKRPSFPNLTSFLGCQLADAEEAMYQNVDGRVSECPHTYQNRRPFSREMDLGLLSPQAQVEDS
Protocol: Protocol for the Cellular Assay of Target Protein Degradation (MV-4-11 Cells, Westernblot).
MV-4-11 cells (approximately 1 million cells per well) were treated with the indicated concentrations ([…]) of compound for 24 hours. The cells were spun down and washed twice with PBS. The cells were suspended by lysis buffer (50 mM Tris (pH7.4), 150 mM NaCl, 1 mM EDTA, 0.5% NP-40, phosphatase and protease inhibitors) and incubated for an additional 30 min at 4° C. for complete lysis. After another centrifugation (13000 rpm for 15 minutes), the supernatants were kept as cell lysates. The protein concentration of the cell lysates was determined via the bicinchoninic acid (BCA) method. Equal amounts (10-20 μg) of protein samples were subjected to 8-15% SDS-PAGE. The proteins were transferred to nitrocellulose membrane and probed with antibodies specific for FLT-3 and GAPDH.

MV4-11 cells = assay: Cell proliferation assay (CellTiter 96 AQueous One Solution); format: cell-based; settings: Homo sapiens
Protocol: Protocol for the Cell Proliferation Assays (MV-4-11 Cells).
MV-4-11 or Molm 14 cells were seeded in 96-well plates at a density of 1×10^4 cells/well and treated with various concentrations of the test compounds for 72 hours. The highest concentration was 500 nM and was serially diluted 5-fold seven times. After incubation, 20 μl/well of CellTiter 96® AQueous One Solution Reagent (Promega®) was added and the plate was incubated an additional 3 hours. The absorbance was measured at 490 nm, and cell viability was calculated by comparing to the absorbance of the vehicle-treated control group using GraphPad Prism 7.
Cell viability/survival is illustrated in FIGS. 4A, 4B and 4C, as determined by a cell proliferation assay. […] DC50, IC50, MH+, and NMR data for exemplary PROTAC-34 through PROTAC-38 and PROTAC-34-Epimer (structure shown below) is shown in Table 3 below.

Structure (SMILES)	Degradation observed (FLT-3)	IC50 (MV4-11 cells; MV4-11, Table 3, MV4-11, read-out: IC50 [cell line]) [nM]	IC50 (MV4-11 cells; MV4-11, 72 h, Table 1, MV4-11 cells, 72 hours, cell viability, read-out: IC50 (nM) MV4-11) [nM]	IC50 (MV4-11 cells; MV4-11, 72 h, Table 2, MV4-11 cells, 72 hours, cell viability, read-out: IC50 (nM) MV4-11) [nM]
Cc1ncsc1-c1ccc(CNC(=O)[C@@H]2C[C@@H](O)CN2C(=O)[C@@H](NC(=O)CCOCCOCCOc2ccc3c(c2)sc2nc(-c4ccc(NC(=O)Nc5cc(C(C)(C)C)on5)cc4)cn23)C(C)(C)C)cc1 [PROTAC-34-Epimer]	No degradation	2.27		
Cc1ncsc1-c1ccc(CNC(=O)[C@@H]2C[C@@H](O)CN2C(=O)[C@@H](NC(=O)CCOCCCCOc2ccc3c(c2)sc2nc(-c4ccc(NC(=O)Nc5cc(C(C)(C)C)on5)cc4)cn23)C(C)(C)C)cc1 [PROTAC-37]	No degradation			
CC(C)(C)c1cc(NC(=O)Nc2ccc(-c3cn4c(n3)sc3cc(OCCN5CCOCC5)ccc34)cc2)no1 [Quizartinib]			2.34	1.75
